Biological target: human SPR (Homo sapiens (Human), UniProt P35270)
Test: Evaluation Example 2: Measurement of human SPR inhibitory activity (seven concentrations, sepiapterin absorbance at 420 nm)
Format: biochemical
Settings: Evaluation Example 2, seven concentrations 0.14 nM to 100 nM, 240 minutes at room temperature, read-out: IC50
In short: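 His-tagged full-length human SPR (1-261) was expressed in E. coli and the tag removed. Enzyme at 150 ng/mL in 100 mM Tris-HCl pH 7.5/0.01% BSA was mixed with compound (0.14–100 nM, seven points), 120 μM sepiapterin and 160 μM NADPH, both as added-solution concentrations. After 240 min at room temperature, remaining sepiapterin was read at 420 nm to give percent inhibition.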

human SPR, sequence (P35270 whole entry): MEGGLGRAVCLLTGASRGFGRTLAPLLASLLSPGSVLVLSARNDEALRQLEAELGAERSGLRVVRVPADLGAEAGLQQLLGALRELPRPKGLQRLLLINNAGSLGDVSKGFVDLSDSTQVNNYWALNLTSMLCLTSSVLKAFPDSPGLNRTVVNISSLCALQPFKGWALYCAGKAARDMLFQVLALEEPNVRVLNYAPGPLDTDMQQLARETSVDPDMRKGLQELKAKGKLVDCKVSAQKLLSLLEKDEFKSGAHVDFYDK

Structure (SMILES)	IC50 [nM]
CC(C)Cn1c(=O)c(C(=O)N[C@@H](C)C(F)(F)F)c(O)n2ncc(/C=C/C(=O)N3CCOCC3)c12 [compound 545, (S,E)-7-Hydroxy-4-isobutyl-3-(3-morpholino-3-oxoprop-1-en-1-yl)-5-oxo-N-(1,1,1-trifluoropropan-2-yl)-4,5-dihydropyrazolo[1,5-a]pyrimidine-6-carboxamide]	0.66
CC(C)Cn1c(=O)c(C(=O)NC2CC2)c(O)n2ncc(/C=C/C(=O)N3CCOCC34CCC4)c12 [compound 547, (E)-N-Cyclopropyl-7-hydroxy-4-isobutyl-5-oxo-3-(3-oxo-3-(8-oxa-5-azaspiro[3,5]nonan-5-yl)prop-1-en-1-yl)-4,5-dihydropyrazolo[1,5-a]pyrimidine-6-carboxamide]	0.74
COC[C@H]1CCCN1C(=O)/C=C/c1cnn2c(O)c(C(=O)NC3CC3)c(=O)n(CC(C)C)c12 [compound 548, (R,E)-N-Cyclopropyl-7-hydroxy-4-isobutyl-3-(3-(2-(methoxymethyl)pyrrolidin-1-yl)-3-oxoprop-1-en-1-yl)-5-oxo-4,5-dihydropyrazolo[1,5-a]pyrimidine-6-carboxamide]	0.79
COC[C@@H]1CCCN1C(=O)/C=C/c1cnn2c(O)c(C(=O)NC3CC3)c(=O)n(CC(C)C)c12 [compound 549, (S,E)-N-Cyclopropyl-7-hydroxy-4-isobutyl-3-(3-(2-(methoxymethyl)pyrrolidine-1-yl)-3-oxoprop-1-en-1-yl)-5-oxo-4,5-dihydropyrazolo[1,5-a]pyrimidine-6-carboxamide]	0.73
CC(C)Cn1c(=O)c(C(=O)NCC(F)(F)F)c(O)n2ncc(/C=C/C(=O)N3CCOCC3)c12 [compound 552, (E)-7-Hydroxy-4-isobutyl-3-(3-morpholino-3-oxoprop-1-en-1-yl)-5-oxo-N-(2,2,2-trifluoroethyl)-4,5-dihydropyrazolo[1,5-a]pyrimidine-6-carboxamide]	0.88
CC(C)Cn1c(=O)c(C(=O)NC2CC2)c(O)n2ncc(/C=C/C(=O)N3CCC3)c12 [compound 553, (E)-3-(3-(Azetidin-1-yl)-3-oxoprop-1-en-1-yl)-N-cyclopropyl-7-hydroxy-4-isobutyl-5-oxo-4,5-dihydropyrazolo[1,5-a]pyrimidine-6-carboxamide]	0.99
CC(C)Cn1c(=O)c(C(=O)NC2CC2)c(O)n2ncc(/C=C/C(=O)N3CC(F)C3)c12 [compound 554, (E)-N-Cyclopropyl-3-(3-(3-fluoroazetidin-1-yl)-3-oxoprop-1-en-1-yl)-7-hydroxy-4-isobutyl-5-oxo-4,5-dihydropyrazolo[1,5-a]pyrimidine-6-carboxamide]	0.77
CC(C)Cn1c(=O)c(C(=O)NC2CC2)c(O)n2ncc(/C=C/C(=O)N3CC(F)(F)C3)c12 [compound 555, (E)-N-Cyclopropyl-3-(3-(3,3-difluoroazetidin-1-yl)-3-oxoprop-1-en-1-yl)-7-hydroxy-4-isobutyl-5-oxo-4,5-dihydropyrazolo[1,5-a]pyrimidine-6-carboxamide]	0.82
CC(C)Cn1c(=O)c(C(=O)NC2CC2)c(O)n2ncc(/C=C/C(=O)N3[C@H](C)COC[C@H]3C)c12 [compound 556, N-Cyclopropyl-3-((E)-3-((3R,5R)-3,5-dimethylmorpholino)-3-oxoprop-1-en-1-yl)-7-hydroxy-4-isobutyl-5-oxo-4,5-dihydropyrazolo[1,5-a]pyrimidine-6-carboxamide]	0.62
CC(C)Cn1c(=O)c(C(=O)NC2CC2)c(O)n2ncc(/C=C/C(=O)N3[C@H](C)COC[C@@H]3C)c12 [compound 557, N-Cyclopropyl-3-((E)-3-(cis-3,5-dimethylmorpholino)-3-oxoprop-1-en-1-yl)-7-hydroxy-4-isobutyl-5-oxo-4,5-dihydropyrazolo[1,5-a]pyrimidine-6-carboxamide]	0.81
COC1CN(C(=O)/C=C/c2cnn3c(O)c(C(=O)NC4CC4)c(=O)n(CC(C)C)c23)C1 [compound 558, (E)-N-Cyclopropyl-7-hydroxy-4-isobutyl-3-(3-(3-methoxyazetidin-1-yl)-3-oxoprop-1-en-1-yl)-5-oxo-4,5-dihydropyrazolo[1,5-a]pyrimidine-6-carboxamide]	1.14
CC(C)Cn1c(=O)c(C(=O)NC2CC2)c(O)n2ncc(/C=C/C(=O)N3CCC4(CCOCC4)C3)c12 [compound 559, (E)-N-Cyclopropyl-7-hydroxy-4-isobutyl-5-oxo-3-(3-oxo-3-(8-oxa-2-azaspiro[4.5]decan-2-yl)prop-1-en-1-yl)-4,5-dihydropyrazolo[1,5-a]pyrimidine-6-carboxamide]	1
CC[C@@H]1CCCN1C(=O)/C=C/c1cnn2c(O)c(C(=O)NC3CC3)c(=O)n(CC(C)C)c12 [compound 562, (R,E)-N-Cyclopropyl-3-(3-(2-ethylpyrrolidin-1-yl)-3-oxoprop-1-en-1-yl)-7-hydroxy-4-isobutyl-5-oxo-4,5-dihydropyrazolo[1,5-a]pyrimidine-6-carboxamide]	1.31
Cc1nn2c(O)c(C(=O)NC3CC3)c(=O)n(CC(C)C)c2c1/C=C/C(=O)N1CCOCC1 [compound 563, (E)-N-Cyclopropyl-7-hydroxy-4-isobutyl-2-methyl-3-(3-morpholino-3-oxoprop-1-en-1-yl)-5-oxo-4,5-dihydropyrazolo[1,5-a]pyrimidine-6-carboxamide]	0.7
Cc1nn2c(O)c(C(=O)NC3CC3)c(=O)n(CC(C)C)c2c1/C=C/C(=O)N1CCCC1 [compound 564, (E)-N-Cyclopropyl-7-hydroxy-4-isobutyl-2-methyl-5-oxo-3-(3-oxo-3-(pyrrolidin-1-yl)prop-1-en-1-yl)-4,5-dihydropyrazolo[1,5-a]pyrimidine-6-carboxamide]	0.95
Cc1nn2c(O)c(C(=O)NC3CC3)c(=O)n(CC(C)C)c2c1/C=C/C(=O)N1CCC(F)(F)C1 [compound 565, (E)-N-Cyclopropyl-3-(3-(3,3-difluoropyrrolidin-1-yl)-3-oxoprop-1-en-1-yl)-7-hydroxy-4-isobutyl-2-methyl-5-oxo-4,5-dihydropyrazolo[1,5-a]pyrimidine-6-carboxamide]	0.93
Cc1nn2c(O)c(C(=O)NC3CC3)c(=O)n(CC(C)C)c2c1/C=C/C(=O)N1CC[C@H](F)C1 [compound 566, (S,E)-N-Cyclopropyl-3-(3-(3-fluoropyrrolidin-1-yl)-3-oxoprop-1-en-1-yl)-7-hydroxy-4-isobutyl-2-methyl-5-oxo-4,5-dihydropyrazolo[1,5-a]pyrimidine-6-carboxamide]	0.94
Cc1nn2c(O)c(C(=O)NC3CC3)c(=O)n(CC(C)C)c2c1/C=C/C(=O)N1[C@@H](C)COC[C@@H]1C [compound 567, N-Cyclopropyl-3-((E)-3-((3S,5S)-3,5-dimethylmorpholino)-3-oxoprop-1-en-1-yl)-7-hydroxy-4-isobutyl-2-methyl-5-oxo-4,5-dihydropyrazolo[1,5-a]pyrimidine-6-carboxamide]	0.69
Cc1nn2c(O)c(C(=O)NC3CC3)c(=O)n(CC(C)C)c2c1/C=C/C(=O)N1CCOC[C@@H]1C [compound 568, (S,E)-N-Cyclopropyl-7-hydroxy-4-isobutyl-2-methyl-3-(3-(3-methylmorpholino)-3-oxoprop-1-en-1-yl)-5-oxo-4,5-dihydropyrazolo[1,5-a]pyrimidine-6-carboxamide]	0.68

Source: US20240092784A1, “CONDENSED HETEROCYCLIC COMPOUND” (NISSAN CHEMICAL CORPORATION, priority 2020, published 2024)
